Data published in US20220298160A1, “COMPOUNDS USEFUL IN HIV THERAPY” (priority 2019, published 2022).

How the values were obtained:
[1] = tested on: HIV pseudotyped virus (NL4-3 provirus), M184V; type: cell-based; details: PSV assay; U373 cells expressing human CD4 and CXCR4 or CCR5; luciferase signal after 3 days of culture
[2] = tested on: HIV pseudotyped virus (NL4-3 provirus), WT; test: PSV assay (pseudotyped virus assay), WT; details: Human immunodeficiency virus 1, NL43, in Homo sapiens, 72 h, read-out: WT IC50 (μM), PSV assay; U373 cells expressing human CD4 and CXCR4 or CCR5; luciferase signal after 3 days of culture
Excerpt: A pseudotyped virus assay (PSV) was used to assess the potency of the HIV inhibitor. Replication defective virus was produced by co-transfection of a plasmid containing an NL4-3 provirus [containing a mutation in the envelope open reading frame (ORF) and a luciferase reporter gene replacing the nef ORF] and a CMV-promoter expression plasmid containing an ORF for various HIV gp160 envelope clones. The harvested virus was stored at −80 C in small aliquots and the titer of the virus measured to produce a robust signal for antiviral assays.
The PSV assay was performed by using U373 cells stably transformed to express human CD4, the primary receptor for HIV entry and either human CXCR4 or human CCR5 which are the co-receptors required for HIV entry as target cells for infection. […] This dose-range was applied to U373 cells and the pre-made pseudotyped virus added. The amount of luciferase signal produced after 3 days of culture was used to reflect the level of pseudotyped virus infection. An IC50, or the concentration of inhibitor required to reduce PSV infection by 50% from the infection containing no inhibitor was calculated. […] IC50 values were determined from a 10 point dose response curve using 3-4-fold serial dilution for each compound, which spans a concentration range >1000 fold.

Compound	IC50 [1] [nM]	IC50 [2] [µM]
C#C[C@]1(CO)O[C@@H](n2cnc3c(N)nc(F)nc32)C[C@@H]1OC(=O)OC1COC(=O)CCCCCCCCCCCC(=O)OC1 [Example 31, (2R,3S,5R)-5-(6-amino-2-fluoro-9H-purin-9-yl)-2-ethynyl-2-(hydroxymethyl)tetrahydrofuran-3-yl (6,18-dioxo-1,5-dioxacyclooctadecan-3-yl) carbonate]	47.8	0.0151
C#C[C@]1(CO)O[C@@H](n2cnc3c(N)nc(F)nc32)C[C@@H]1OC(=O)OC(COC(C)=O)COC(C)=O [Example 28, 2-(((((2R,3S,5R)-5-(6-amino-2-fluoro-9H-purin-9-yl)-2-ethynyl-2-(hydroxymethyl)tetrahydrofuran-3-yl)oxy)carbonyl)oxy)propane-1,3-diyl diacetate]	39.2	0.0106
C#C[C@]1(CO)O[C@@H](n2cnc3c(N)nc(F)nc32)C[C@@H]1OC(=O)NC(C)C [Example 20, (2R,3S,5R)-5-(6-amino-2-fluoro-9H-purin-9-yl)-2-ethynyl-2-(hydroxymethyl)tetrahydrofuran-3-yl isopropylcarbamate]	> 25000	10.5
C#C[C@]1(COC(=O)NCCCCC)O[C@@H](n2cnc3c(N)nc(F)nc32)C[C@@H]1O [Example 4, ((2R,3S,5R)-5-(6-amino-2-fluoro-9H-purin-9-yl)-2-ethynyl-3-hydroxytetrahydrofuran-2-yl)methyl pentylcarbamate]	> 25000	2.66
C#C[C@]1(CO)O[C@@H](n2cnc3c(N)nc(F)nc32)C[C@@H]1OC(=O)OCc1ccc(OC(=O)CCCCCCCCCCCCC)cc1 [Example 12, 4-((((((2R,3S,5R)-5-(6-amino-2-fluoro-9H-purin-9-yl)-2-ethynyl-2-(hydroxymethyl)tetrahydrofuran-3-yl)oxy)carbonyl)oxy)methyl)phenyl tetradecanoate]	66.3	0.017
C#C[C@]1(CO)O[C@@H](n2cnc3c(N)nc(F)nc32)C[C@@H]1OC(=O)OC(COC(=O)CCCCCCCC)COC(=O)CCCCCCCC [Example 30, 2-(((((2R,3S,5R)-5-(6-amino-2-fluoro-9H-purin-9-yl)-2-ethynyl-2-(hydroxymethyl)tetrahydrofuran-3-yl)oxy)carbonyl)oxy)propane-1,3-diyl dinonanoate]	29.3	0.0077
C#C[C@]1(CO)O[C@@H](n2cnc3c(N)nc(F)nc32)C[C@@H]1OC(=O)NC [Example 18, (2R,3S,5R)-5-(6-amino-2-fluoro-9H-purin-9-yl)-2-ethynyl-2-(hydroxymethyl)tetrahydrofuran-3-yl methylcarbamate]	9110	2.03
C#C[C@]1(COC(=O)N(CC)CC)O[C@@H](n2cnc3c(N)nc(F)nc32)C[C@@H]1O [Example 7, ((2R,3S,5R)-5-(6-amino-2-fluoro-9H-purin-9-yl)-2-ethynyl-3-hydroxytetrahydrofuran-2-yl)methyl diethylcarbamate]	2410	1.28
C#C[C@]1(COC(=O)OC2COC(=O)CCCCCCCCCCCC(=O)OC2)O[C@@H](n2cnc3c(N)nc(F)nc32)C[C@@H]1O [Example 10, ((2R,3S,5R)-5-(6-amino-2-fluoro-9H-purin-9-yl)-2-ethynyl-3-hydroxytetrahydrofuran-2-yl)methyl (6,18-dioxo-1,5-dioxacyclooctadecan-3-yl) carbonate]	31.3	0.0097
C#C[C@]1(CO)O[C@@H](n2cnc3c(N)nc(F)nc32)C[C@@H]1OC(=O)OCc1ccc(OC(=O)CCCCCCCCCCCCCCCCCCC)cc1 [Example 11, 4-((((((2R,3S,5R)-5-(6-amino-2-fluoro-9H-purin-9-yl)-2-ethynyl-2-(hydroxymethyl)tetrahydrofuran-3-yl)oxy)carbonyl)oxy)methyl)phenyl icosanoate]	3210	2.31
